Reference: publication PMC10893060, “Synthesis and Study of the Structure–Activity Relationship of Antiproliferative N-Substituted Isosteviol-Based 1,3-Aminoalcohols” (Pharmaceuticals, 2024)

Legend:
Format in all cases: cell-based
[1] = test system: MCF-7; experiment: MTT antiproliferative assay, MCF-7; conditions: Homo sapiens, MCF7, 72 h, no IC50 calculated when less than 50% inhibition at 10 μM
Description: (§1) The antiproliferative activities of the prepared diterpene analogues were studied using an MTT assay on a panel of human adherent cancer lines, including cells from cervical (HeLa), breast (MDA-MB-231, MCF-7), and ovary cancers (A2780), as given in Figure 1 and Table S1 in the Supplementary Materials. A non-malignant fibroblast cell line (NIH/3T3) was also utilised to obtain preliminary information on the cancer selectivity of the tested compounds. Based on the obtained activities, some conclusions could be drawn regarding the structure–activity relationships (SARs). Since neither the key intermediate benzyl ester of hydroxylaldehyde 4 nor the N-Boc protected aminoalcohols (6, 7, 11, 12) or even compound 8 with a free carboxylic function exerted remarkable antiproliferative effects (except for 12 against A2780 ovarian cancer cells), we could conclude that the simultaneous presence of the ester function and the basic secondary amino function were essential for the inhibition of cell growth. […] All active molecules inhibited considerably the proliferation of non-malignant cells, which meant that most currently presented agents were not optimal for further investigations of their anticancer properties.
(§2) The growth-inhibitory effects of the isosteviol-based 1,3-aminoalcohols were determined by a standard MTT (3-(4,5-dimethylthiazol-2-yl)-2,5-diphenyltetrazolium bromide) assay on a panel containing five cell lines, including Hela (cervical cancer), MDA-MB-231 and MCF-7 (breast cancers), and A2780 ovarian cancer cells. All cell lines were purchased from the European Collection of Cell Cultures (Salisbury, UK). The cells were maintained in a minimal essential medium supplemented with 10% foetal bovine serum, 1% non-essential amino acids, and 1% penicillin–streptomycin at 37 °C in a humidified atmosphere containing 5% CO2. All media and supplements were obtained from Lonza Group Ltd. (Basel, Switzerland). Cancer cells were seeded into 96-well plates (5000 cells/well); after overnight incubation, the test compound was added in two different concentrations (10 µM and 30 µM) and incubated for another 72 h under cell-culturing conditions. In the next step, 20 μL of 5 mg/mL of an MTT solution was added to each well and incubated for a further 4 h. The medium was removed and the precipitated formazan crystals were dissolved in DMSO after 60 min of shaking at 37 °C. As a final step, the absorbance was measured at 545 nm by using a microplate reader. Untreated cells were included as controls. […] Two independent experiments were performed with five wells for each condition. Calculations were performed using the GraphPad Prism 10.0 software (GraphPad Software Inc., San Diego, CA, USA).

[2] = test system: HeLa; experiment: MTT antiproliferative assay, HeLa; conditions: Homo sapiens, 72 h, no IC50 calculated when less than 50% inhibition at 10 μM
Description: as §1, §2

[3] = test system: NIH/3T3; experiment: MTT assay on non-malignant fibroblasts; conditions: Mus musculus, NIH3T3, 72 h, no IC50 calculated when less than 50% inhibition at 10 μM
Description: as §1, §2

[4] = test system: A2780; experiment: MTT antiproliferative assay, A2780; conditions: Homo sapiens, 72 h, no IC50 calculated when less than 50% inhibition at 10 μM
Description: as §1, §2

[5] = test system: MDA-MB-231; experiment: MTT antiproliferative assay, MDA-MB-231; conditions: Homo sapiens, 72 h, no IC50 calculated when less than 50% inhibition at 10 μM
Description: as §1, §2

Compound | IC50 [1] | IC50 [2] | IC50 [3] | IC50 [4] | IC50 [5]
C[C@]12CCC3[C@](CC[C@@H]4[C@](C)(C(=O)OCc5ccccc5)CCC[C@@]34C)(C1)[C@H](C=O)[C@H]2O (stereo partly drawn) [Compound 4, (4R,4aS,6aS,7S,8R,9S,11bS)-Benzyl 7-formyl-8-hydroxy-4,9,11b-trimethyltetradecahydro-6a,9-methanocyclohepta[a]naphthalene-4-carboxylate] | > 10 µM | > 10 µM | > 10 µM | > 10 µM | > 10 µM
C[C@]12CCC3[C@](CC[C@@H]4[C@](C)(C(=O)OCc5ccccc5)CCC[C@@]34C)(C1)[C@H](CNCc1ccc(F)cc1)[C@H]2O (stereo partly drawn) [Compound 5, (4R,4aS,6aS,7R,8R,9S,11bS)-Benzyl 7-(((4-fluorobenzyl)amino)methyl)-8-hydroxy-4,9,11b-trimethyltetradecahydro-6a,9-methanocyclohepta[a]naphthalene-4-carboxylate] | 4.29 µM | 4.17 µM | 4.27 µM | 4.57 µM | 5.98 µM
CC(C)(C)OC(=O)N(Cc1ccc(F)cc1)C[C@@H]1[C@@H](O)[C@@]2(C)CCC3[C@]1(CC[C@@H]1[C@](C)(C(=O)OCc4ccccc4)CCC[C@@]31C)C2 (stereo partly drawn) [Compound 6, (4R,4aS,6aS,7R,8R,9S,11bS)-Benzyl 7-(((tert-butoxycarbonyl)(4-fluorobenzyl)amino)methyl)-8-hydroxy-4,9,11b-trimethyltetradecahydro-6a,9-methanocyclohepta[a]naphthalene-4-carboxylate] | > 10 µM | > 10 µM | > 10 µM | > 10 µM | > 10 µM
CC(C)(C)OC(=O)N(Cc1ccc(F)cc1)C[C@@H]1[C@@H](O)[C@@]2(C)CCC3[C@]1(CC[C@@H]1[C@](C)(C(=O)O)CCC[C@@]31C)C2 (stereo partly drawn) [Compound 7, (4R,4aS,6aS,7R,8R,9S,11bS)-7-(((tert-butoxycarbonyl)(4-fluorobenzyl)amino)methyl)-8-hydroxy-4,9,11b-trimethyltetradecahydro-6a,9-methanocyclohepta[a]naphthalene-4-carboxylic Acid] | > 10 µM | > 10 µM | > 10 µM | > 10 µM | > 10 µM
C=CC(=O)OCCCCOC(=O)[C@]1(C)CCC[C@@]2(C)C3CC[C@@]4(C)C[C@]3(CC[C@H]12)[C@H](CN(Cc1ccc(F)cc1)C(=O)OC(C)(C)C)[C@H]4O (stereo partly drawn) [Compound 11, (4R,4aS,6aS,7R,8R,9S,11bS)-4-(Acryloyloxy)butyl 7-(((tert-butoxycarbonyl)(4-fluorobenzyl)amino)methyl)-8-hydroxy-4,9,11b-trimethyltetradecahydro-6a,9-methanocyclohepta[a]naphthalene-4-carboxylate] | > 10 µM | > 10 µM | > 10 µM | > 10 µM | > 10 µM
C=CC(=O)OCCC(=O)OCCCCOC(=O)[C@]1(C)CCC[C@@]2(C)C3CC[C@@]4(C)C[C@]3(CC[C@H]12)[C@H](CN(Cc1ccc(F)cc1)C(=O)OC(C)(C)C)[C@H]4O (stereo partly drawn) [Compound 12, (4R,4aS,6aS,7R,8R,9S,11bS)-4-((3-(Acryloyloxy)propanoyl)oxy)butyl 7-(((tert-butoxycarbonyl)(4-fluorobenzyl)amino)methyl)-8-hydroxy-4,9,11b-trimethyltetradecahydro-6a,9-methanocyclohepta[a]naphthalene-4-carboxylate] | > 10 µM | > 10 µM | > 10 µM | 4.78 µM | > 10 µM
C[C@@H](NC[C@@H]1[C@@H](O)[C@@]2(C)CCC3[C@]1(CC[C@@H]1[C@](C)(C(=O)OCc4ccccc4)CCC[C@@]31C)C2)c1ccc(F)cc1 (stereo partly drawn) [Compound 15, (4R,4aS,6aS,7R,8R,9S,11bS)-Benzyl 7-((((R)-1-(4-fluorophenyl)ethyl)amino)methyl)-8-hydroxy-4,9,11b-trimethyltetradecahydro-6a,9-methanocyclohepta[a]naphthalene-4-carboxylate] | 4.2 µM | 4.18 µM | 4.8 µM | 3.91 µM | 4.28 µM
CC[C@@H](NC[C@@H]1[C@@H](O)[C@@]2(C)CCC3[C@]1(CC[C@@H]1[C@](C)(C(=O)OCc4ccccc4)CCC[C@@]31C)C2)c1ccccc1 (stereo partly drawn) [Compound 16, (4R,4aS,6aS,7R,8R,9S,11bS)-Benzyl 8-hydroxy-4,9,11b-trimethyl-7-((((R)-1-phenylpropyl)amino)methyl)tetradecahydro-6a,9-methanocyclohepta[a]naphthalene-4-carboxylate] | 3.48 µM | 3.86 µM | 1.37 µM | 4 µM | 4.79 µM
CC[C@H](NC[C@@H]1[C@@H](O)[C@@]2(C)CCC3[C@]1(CC[C@@H]1[C@](C)(C(=O)OCc4ccccc4)CCC[C@@]31C)C2)c1ccccc1 (stereo partly drawn) [Compound 17, (4R,4aS,6aS,7R,8R,9S,11bS)-Benzyl 8-hydroxy-4,9,11b-trimethyl-7-((((S)-1-phenylpropyl)amino)methyl)tetradecahydro-6a,9-methanocyclohepta[a]naphthalene-4-carboxylate] | 4.74 µM | 4.45 µM | 1.95 µM | 3.78 µM | 4.04 µM
C[C@@H](NC[C@@H]1[C@@H](O)[C@@]2(C)CCC3[C@]1(CC[C@@H]1[C@](C)(C(=O)OCc4ccccc4)CCC[C@@]31C)C2)c1cccc2ccccc12 (stereo partly drawn) [Compound 18, (4R,4aS,6aS,7R,8R,9S,11bS)-Benzyl 8-hydroxy-4,9,11b-trimethyl-7-((((R)-1-(naphthalen-1-yl)ethyl)amino)methyl)tetradecahydro-6a,9-methanocyclohepta[a]naphthalene-4-carboxylate] | 4.85 µM | 3.05 µM | 4.61 µM | 2.89 µM | 4.63 µM
C[C@H](NC[C@@H]1[C@@H](O)[C@@]2(C)CCC3[C@]1(CC[C@@H]1[C@](C)(C(=O)OCc4ccccc4)CCC[C@@]31C)C2)c1cccc2ccccc12 (stereo partly drawn) [Compound 19, (4R,4aS,6aS,7R,8R,9S,11bS)-Benzyl 8-hydroxy-4,9,11b-trimethyl-7-((((S)-1-(naphthalen-1-yl)ethyl)amino)methyl)tetradecahydro-6a,9-methanocyclohepta[a]naphthalene-4-carboxylate] | 5.59 µM | 6.08 µM | 5.44 µM | 4.41 µM | 7.29 µM
CC12CCC3C(CC[C@@H]4[C@](C)(C(=O)OCc5ccccc5)CCC[C@@]34C)(C1)[C@H](CNCCCn1ccnc1)[C@H]2O (stereo partly drawn) [Compound 20, (4R,4aS,7R,8R,11bS)-Benzyl 7-(((3-(1H-imidazol-1-yl)propyl)amino)methyl)-8-hydroxy-4,9,11b-trimethyltetradecahydro-6a,9-methanocyclohepta[a]naphthalene-4-carboxylate] | 1.37 µM | 1.99 µM | 4.78 µM | 3.74 µM | 1.78 µM
COC(=O)[C@]1(C)CCC[C@@]2(C)C3CC[C@@]4(C)C[C@]3(CC[C@H]12)[C@H](CN[C@H](C)c1ccc(F)cc1)[C@H]4O (stereo partly drawn) [Compound 23, (4R,4aS,6aS,7R,8R,9S,11bS)-Methyl 7-((((R)-1-(4-fluorophenyl)ethyl)amino)methyl)-8-hydroxy-4,9,11b-trimethyltetradecahydro-6a,9-methanocyclohepta[a]naphthalene-4-carboxylate] | 3.16 µM | 4.16 µM | 1.79 µM | 4.24 µM | 5.08 µM
CC[C@@H](NC[C@@H]1[C@@H](O)[C@@]2(C)CCC3[C@]1(CC[C@@H]1[C@](C)(C(=O)OC)CCC[C@@]31C)C2)c1ccccc1 (stereo partly drawn) [Compound 24, (4R,4aS,6aS,7R,8R,9S,11bS)-Methyl 8-hydroxy-4,9,11b-trimethyl-7-((((R)-1-phenylpropyl)amino)methyl)tetradecahydro-6a,9-methanocyclohepta[a]naphthalene-4-carboxylate] | 2.37 µM | 3.04 µM | 4.44 µM | 4.52 µM | 4.99 µM
